Measured values as given in PubChem BioAssay (NCI).
“And” between values parts separate entries of the source, which are not always exact repeats. Identical values can stand only once.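 How tested: cells in 96-well plates exposed to compound for 48 hours at five concentrations. GI50 is the concentration that inhibits growth by half. TGI marks complete inhibition of growth.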

Columns and labels:
Assay in all cases: inhibition of tumour cell growth, NCI panel, 48 h
A498 renal = tested on: A498 renal
HCT-116 colon = tested on: HCT-116 colon
KM12 colon = tested on: KM12 colon
HCT-15 colon = tested on: HCT-15 colon
CCRF-CEM leukemia = tested on: CCRF-CEM leukemia
IGROV1 ovarian = tested on: IGROV1 ovarian
MCF7 breast = tested on: MCF7 breast
HS 578T breast = tested on: HS 578T breast
HT29 colon = tested on: HT29 colon
HOP-92 NSCLC = tested on: HOP-92 NSCLC

## CC1C=CC(C)C2(O)C(=O)NC(O)C12 (stereo unspecified)
A498 renal
  TGI: > 100 µM
HCT-116 colon
  TGI: > 100 µM
KM12 colon
  TGI: > 100 µM
HCT-15 colon
  TGI: > 100 µM
CCRF-CEM leukemia
  TGI: > 100 µM
IGROV1 ovarian
  TGI: > 100 µM

## N#CCC12CC=CCC1=C(O)C(=O)c1ccc(O)cc12 (stereo unspecified)
MCF7 breast
  TGI: > 100 µM
A498 renal
  TGI: > 100 µM
HCT-116 colon
  TGI: > 100 µM
HS 578T breast
  TGI: > 100 µM
HT29 colon
  TGI: > 100 µM
KM12 colon
  TGI: > 100 µM
HCT-15 colon
  TGI: > 100 µM
CCRF-CEM leukemia
  TGI: > 100 µM
IGROV1 ovarian
  TGI: > 100 µM

## Cn1c(=O)c2[nH]c(C3CC(=O)CC(c4nc5c([nH]4)c(=O)n(C)c(=O)n5C)N3)nc2n(C)c1=O (stereo unspecified)
MCF7 breast
  TGI: > 100 µM
A498 renal
  TGI: > 100 µM
HCT-116 colon
  TGI: > 100 µM
HS 578T breast
  TGI: > 100 µM
HT29 colon
  TGI: > 100 µM
KM12 colon
  TGI: > 100 µM
HCT-15 colon
  TGI: > 100 µM
CCRF-CEM leukemia
  TGI: > 100 µM
IGROV1 ovarian
  TGI: > 100 µM

## CC1(C)N=C(N)N=C(N)N1c1ccc(OCC(=O)N2CCOCC2)c(Cl)c1
HOP-92 NSCLC
  GI50: > 100 µM
  TGI: > 100 µM
MCF7 breast
  GI50: 1.36 µM
  TGI: > 100 µM
A498 renal
  GI50: > 100 µM
  TGI: > 100 µM
HCT-116 colon
  GI50: 0.667 µM
  TGI: > 100 µM
HT29 colon
  GI50: 0.66 µM
  TGI: > 100 µM
KM12 colon
  GI50: 4.7 µM
  TGI: > 100 µM
HCT-15 colon
  GI50: > 100 µM
  TGI: > 100 µM
CCRF-CEM leukemia
  GI50: 3.55 µM
  TGI: > 100 µM
IGROV1 ovarian
  GI50: 0.379 µM
  TGI: 12.9 µM

## Cc1ccc(-c2nc3c(C(=O)NCCN(C)C)cccc3[nH]2)cc1
HOP-92 NSCLC
  TGI: 32.4 µM
A498 renal
  TGI: 27.8 µM
HCT-116 colon
  TGI: 20.1 µM
HT29 colon
  TGI: 80.1 µM
KM12 colon
  TGI: > 100 µM
HCT-15 colon
  TGI: 58.2 µM
CCRF-CEM leukemia
  TGI: 47.4 µM
IGROV1 ovarian
  TGI: 41.9 µM

## N#CCc1ccc(/C(C#N)=C2/OC(=N)C(c3ccc(CC#N)cc3)C2=O)cc1 (stereo unspecified)
HOP-92 NSCLC
  TGI: > 100 µM
A498 renal
  TGI: > 100 µM
HCT-116 colon
  TGI: > 100 µM
HT29 colon
  TGI: > 100 µM
HCT-15 colon
  TGI: > 100 µM
CCRF-CEM leukemia
  TGI: > 100 µM
IGROV1 ovarian
  TGI: > 100 µM

## CC(C)(C)c1cn2cccc(C(=O)N3CCN(CC(=O)Nc4ccc(Cl)cc4C(=O)c4ccccc4Cl)CC3)c2n1
MCF7 breast
  GI50: 3.94 µM
  TGI: 20.8 µM
A498 renal
  GI50: 3.48 µM
  TGI: 9.38 µM
HCT-116 colon
  GI50: 10.3 µM
  TGI: 25.7 µM
HS 578T breast
  GI50: 4.72 µM
  TGI: 19.9 µM
HT29 colon
  GI50: 3.33 µM
  TGI: 12.1 µM
KM12 colon
  GI50: 5.68 µM
  TGI: 22.4 µM
HCT-15 colon
  GI50: 4.81 µM
  TGI: 32 µM
CCRF-CEM leukemia
  GI50: 3.39 µM
  TGI: 13.7 µM
IGROV1 ovarian
  GI50: 16.4 µM
  TGI: 38.5 µM

## O=C(Nc1ccc([N+](=O)[O-])cc1C(=O)O)c1ccc([N+](=O)[O-])cc1
HOP-92 NSCLC
  TGI: 36.6 µM
A498 renal
  TGI: > 100 µM
HCT-116 colon
  TGI: 53.9 µM
HT29 colon
  TGI: > 100 µM
KM12 colon
  TGI: 99.5 µM
HCT-15 colon
  TGI: > 100 µM
CCRF-CEM leukemia
  TGI: 26.9 µM
IGROV1 ovarian
  TGI: > 100 µM

## O=C(CC/C(CC(=O)c1ccc(Cl)cc1)=N/O)Nc1ccc(Cl)c(Cl)c1
HOP-92 NSCLC
  TGI: > 100 µM
A498 renal
  TGI: > 100 µM
HCT-116 colon
  TGI: > 100 µM
HT29 colon
  TGI: > 100 µM
KM12 colon
  TGI: > 100 µM
HCT-15 colon
  TGI: > 100 µM
CCRF-CEM leukemia
  TGI: > 100 µM
IGROV1 ovarian
  TGI: > 100 µM

## CCOC(=O)N[C@H]1CCc2cc(O)c(OC)c(OC)c2-c2ccc(SC)c(=O)cc21
HOP-92 NSCLC
  TGI: 0.0786 µM
A498 renal
  TGI: 0.922 µM
HCT-116 colon
  TGI: 10.7 µM
HT29 colon
  TGI: 7.22 µM
KM12 colon
  TGI: 0.413 µM
HCT-15 colon
  TGI: > 100 µM
CCRF-CEM leukemia
  TGI: > 13.9 µM
IGROV1 ovarian
  TGI: > 86.9 µM

## Cc1cc(Cl)ccc1NC(=O)CC1SC(N)=NC1=O (stereo unspecified)
A498 renal
  TGI: > 100 µM
HT29 colon
  TGI: > 100 µM
KM12 colon
  TGI: > 100 µM
HCT-15 colon
  TGI: > 100 µM
CCRF-CEM leukemia
  TGI: > 100 µM
IGROV1 ovarian
  TGI: > 100 µM

## Oc1ccccc1Nc1nc2ccccc2c2occc12
HOP-92 NSCLC
  GI50: 5.73 µM
  TGI: 19.5 µM
MCF7 breast
  GI50: 25.2 µM
  TGI: 51.8 µM
HCT-116 colon
  GI50: 14.3 µM
  TGI: 27.4 µM
HS 578T breast
  GI50: 3.9 µM
  TGI: 20.8 µM
KM12 colon
  GI50: 12.5 µM
  TGI: 50.7 µM
HCT-15 colon
  GI50: 12.8 µM
  TGI: 31.7 µM
IGROV1 ovarian
  GI50: 0.0614 µM
  TGI: 15.8 µM

## CCC[CH2][Sn]1([CH2]CCC)[O]C(=O)c2cccc(OC)c2[O]1
HOP-92 NSCLC
  GI50: < 0.0456 µM
  TGI: 0.486 µM
A498 renal
  GI50: 0.21 µM
  TGI: 0.465 µM
HCT-116 colon
  GI50: 0.494 µM
  TGI: 1.69 µM
HT29 colon
  GI50: 0.798 µM
  TGI: 2.09 µM
KM12 colon
  GI50: 1.1 µM
  TGI: 2.32 µM
HCT-15 colon
  GI50: 0.698 µM
  TGI: 2 µM
CCRF-CEM leukemia
  GI50: 0.0261 µM
IGROV1 ovarian
  GI50: 0.755 µM
  TGI: 2.15 µM

## Cc1ccc(NC(=O)COC(=O)c2cccc3c(=O)c4ccccc4[nH]c23)cc1
HOP-92 NSCLC
  TGI: > 100 µM
A498 renal
  TGI: 92.4 µM
HCT-116 colon
  TGI: > 100 µM
HT29 colon
  TGI: > 100 µM
KM12 colon
  TGI: > 100 µM
IGROV1 ovarian
  TGI: > 100 µM

## O=C1C2C(C(=O)N1c1ccccc1)C1(c3ccccc3)OC2(c2ccccc2)c2ccccc21 (stereo unspecified)
HOP-92 NSCLC
  TGI: > 100 µM
HT29 colon
  TGI: > 100 µM
KM12 colon
  TGI: > 100 µM
HCT-15 colon
  TGI: > 100 µM
CCRF-CEM leukemia
  TGI: > 100 µM
IGROV1 ovarian
  TGI: > 100 µM

## C/C=C(\CCC1NCCc2c1[nH]c1ccccc21)[Si](C)(C)C (stereo unspecified)
HOP-92 NSCLC
  GI50: 5.2 µM and 2.56 µM
  TGI: 12.3 µM and 8.5 µM
A498 renal
  TGI: 14 µM and 9.88 µM
HCT-116 colon
  GI50: 5.6 µM and 1.71 µM
  TGI: 10.3 µM and 3.13 µM
HS 578T breast
  TGI: 6.28 µM
HT29 colon
  GI50: 5.46 µM and 2.21 µM
  TGI: 10.4 µM and 5.03 µM
KM12 colon
  GI50: 6.18 µM and 1.9 µM
  TGI: 11.3 µM and 3.64 µM
HCT-15 colon
  TGI: 32.7 µM and 5.08 µM
CCRF-CEM leukemia
  GI50: 7.18 µM and 2.17 µM
  TGI: 17.2 µM and 8.44 µM
IGROV1 ovarian
  GI50: 11.9 µM and 4 µM
  TGI: 16.6 µM and 12.6 µM
